Laboratory results published in patent publication US20080249042A1, “All-Trans-Retinol: All-Trans-13,14-Dihydroretinol Saturase and Methods of Its Use” (UNIVERSITY OF WASHINGTON, priority 2004, published 2008).
Read-outs that look alike come from different tables or passages of the source.

Experiments:
[1] = Liver retinoids of Lrat-/- mice 3 h after gavage with all-trans-ROL palmitate; format: in vivo, mouse; details: for Level of liver retinoids 3 hr following gavage with ROL palmitate / concentration at 3 h: Lrat-/- mice, 3 hr post-gavage, liver; for concentration at 3 h: Lrat−/− (LRAT-deficient knockout), mouse, oral, read-out: Level of liver retinoids 3 hr following gavage with ROL palmitate
Text: Metabolism of Retinoids in Vivo. All animal experiments employed procedures approved by the University of Washington and conformed to recommendations of the American Veterinary Medical Association Panel on Euthanasia and recommendations of the Association of Research for Vision and Ophthalmology. Animals were maintained on a 12-h light and 12-h dark cycle. All manipulations were done under dim red or infrared light (>560 nm). Most experiments used 6-12-week-old mice. Lrat−/− mice were genotyped as described previously. Batten, et al. J. Biol. Chem. 279:10422-10432, 2004. Animals were maintained on a control chow diet up to 1 h prior to oral gavage. The appropriate amount of all-trans-ROL palmitate, all-trans-DROL, or all-trans-RA was dissolved in vegetable oil and administered by oral gavage 3 h prior to analysis.
Analysis of Retinoids. Liver (1 g) from retinoid gavaged or naive mice was homogenized in 2 ml of 137 mM NaCl, 2.7 mM KCl, and 10 mM sodium phosphate (pH 7.4) for 30 s using a Polytron homogenizer. 10 μl of 5 M NaOH was added to 3 ml of the ethanolic extract, and the nonpolar retinoids were extracted using 5 ml of hexane. The extraction was repeated, and the organic phases were combined, dried under vacuum, resuspended in hexane, and examined by normal phase HPLC using a normal phase column (Beckman Ultrasphere Si 5μ, 4.6×250 mm). The elution condition was an isocratic solvent system of 10% ethyl acetate in hexane (v/v) for 25 min at a flow rate of 1.4 ml/min at 20° C. with detection at 325 and 290 nm for the detection of nonpolar retinoids and 13,14-dihydroretinoids, respectively. The aqueous phase was acidified with 40 μl of 12 N HCl, and polar retinoids were extracted with 5 ml of hexane. The extraction was repeated, and the organic phases of the polar retinoid extractions were combined, dried, resuspended in solvent composed of 80% CH3CN, 10 mM ammonium acetate, 1% acetic acid, and examined by reverse phase HPLC. Analysis of polar retinoids from tissues was done by reverse phase HPLC using a narrowbore, 120-Å, 5-μm, 2.1×250 mm, Denali C18 column (Grace-Vydac, Hesperia, Calif.). The solvent system was composed of buffer A, 80% methanol, 20% 36 mM ammonium acetate (pH 4.7 adjusted with acetic acid), and buffer B, 100% methanol. The HPLC elution conditions were […], 100% buffer A for 40 min, 100% buffer B for 10 min, and 10 min equilibration in buffer A. The elution profiles of RA and DRA were monitored using an online diode array detector set at 350 and 290 nm, respectively. The peaks were identified based on their UV-visible spectra and/or coelution with synthetic or commercially available standards. The measured area of absorbance was converted to picomoles based on a calibration of the HPLC columns using a known amount of all-trans-RA or all-trans-ROL (Sigma) and all-trans-DROL or all-trans-DRA (synthetic standards). The extraction efficiency was monitored by spiking a tissue sample with [^3H]RA (PerkinElmer Life Sciences) and monitoring the radioactivity recovered from the HPLC column. In the case of liver samples the extraction efficiency was 95% or better. Mass spectrometry analyses of synthesized retinoids and of natural retinoids purified by HPLC were performed using a Kratos profile HV-3 direct probe mass spectrometer.

CYP26B1 = molecular target: T1, CYP26B1 (Mus musculus, UniProt Q811W2); details: 0.1 mM, 4 h, cells in culture
T1 sequence (Q811W2 1-512): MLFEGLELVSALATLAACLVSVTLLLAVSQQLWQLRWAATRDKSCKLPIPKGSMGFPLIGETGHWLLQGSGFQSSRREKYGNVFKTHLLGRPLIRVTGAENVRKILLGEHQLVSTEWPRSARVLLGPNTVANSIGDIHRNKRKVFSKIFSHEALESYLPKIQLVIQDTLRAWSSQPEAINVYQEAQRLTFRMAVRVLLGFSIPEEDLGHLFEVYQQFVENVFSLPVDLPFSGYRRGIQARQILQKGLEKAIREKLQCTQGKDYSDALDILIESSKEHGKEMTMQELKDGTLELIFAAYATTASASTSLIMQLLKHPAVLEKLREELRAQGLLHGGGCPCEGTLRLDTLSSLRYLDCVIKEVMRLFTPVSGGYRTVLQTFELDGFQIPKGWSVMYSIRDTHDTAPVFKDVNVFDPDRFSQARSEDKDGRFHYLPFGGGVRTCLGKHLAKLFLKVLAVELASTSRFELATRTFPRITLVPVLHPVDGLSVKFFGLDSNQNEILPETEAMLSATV
Method: CYP26A1 Oxidation Assay. […] After 24 h, the transfected cells were split into 12-well plates to ensure an equal number of transfected cells in each assay well. […] The peaks were identified based on their spectra and coelution with standards. The cell lysate was examined for expression of CYP26A1, -B1, and -C1 by SDS-PAGE and immunoblotting of the V5 epitope-tagged recombinant protein using an anti-V5 epitope monoclonal antibody (Invitrogen).

Equine liver ADH = molecular target: T2, Equine liver ADH (Equus caballus, UniProt P00327); assay: Oxidation using liver alcohol dehydrogenase; format: biochemical, horse; details: in the presence of NAD and NADP
T2 construct: we used ADH purified from horse liver (EC 1.1.1.1 [EC]); purchased Sigma; host or cells: horse liver
Method: Oxidation of All-trans-ROL and All-trans-DROL Using Liver Alcohol Dehydrogenase. Equine liver ADH (EC 1.1.1.1 [EC] ) was obtained from Sigma and dissolved in 50 mM Tris (pH 8.8) to a concentration of 5 units/ml (8.6 mg/ml). NAD and NADP were mixed together (1:1) at a concentration of 10 mM each. A substrate solution, 2 μl of 2 mM stock of all-trans-ROL or all-trans-DROL in N,N-dimethylformamide, was added to a 1.5-ml Eppendorf tube containing 20 μl of 10% bovine serum albumin, 20 μl of ADH, 2 μl of cofactor mixture, and 50 mM Tris (pH 8.8) to a total volume of 200 μl. The solutions were incubated at 37° C. for 60 min, after which 50 μl of 0.8 M NH2OH solution (pH 7.0) was added, followed by addition of 300 μl of methanol, 15 min at room temperature, and extraction with 300 μl of hexane. The organic phase was dried and analyzed by normal phase HPLC as described in the analysis of nonpolar retinoids extracted from tissue samples. As a control for the nonenzymatic reaction, boiled protein (90° C. for 5 min) was used with or without addition of cofactors.

RDH12 = molecular target: T3, RDH12 (Homo sapiens, UniProt Q96NR8); assay: Oxidation by RDH12; format: biochemical; details: results not shown
T3 sequence (Q96NR8 1-316): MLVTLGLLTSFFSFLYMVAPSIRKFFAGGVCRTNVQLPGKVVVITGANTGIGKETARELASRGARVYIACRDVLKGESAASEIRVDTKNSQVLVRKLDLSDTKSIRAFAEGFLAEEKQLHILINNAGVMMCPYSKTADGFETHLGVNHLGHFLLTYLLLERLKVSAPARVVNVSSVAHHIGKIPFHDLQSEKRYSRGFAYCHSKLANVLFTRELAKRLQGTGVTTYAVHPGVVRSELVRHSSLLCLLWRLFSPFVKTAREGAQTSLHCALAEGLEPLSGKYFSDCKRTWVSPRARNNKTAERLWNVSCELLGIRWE

[2] = 3 h post-gavage with ROL palmitate
[3] = 10^5 IU/kg body weight all-trans-ROL palmitate
[4] = 10^6 IU/kg body weight all-trans-ROL palmitate

T2 sequence (P00327 2-375 limits assumed): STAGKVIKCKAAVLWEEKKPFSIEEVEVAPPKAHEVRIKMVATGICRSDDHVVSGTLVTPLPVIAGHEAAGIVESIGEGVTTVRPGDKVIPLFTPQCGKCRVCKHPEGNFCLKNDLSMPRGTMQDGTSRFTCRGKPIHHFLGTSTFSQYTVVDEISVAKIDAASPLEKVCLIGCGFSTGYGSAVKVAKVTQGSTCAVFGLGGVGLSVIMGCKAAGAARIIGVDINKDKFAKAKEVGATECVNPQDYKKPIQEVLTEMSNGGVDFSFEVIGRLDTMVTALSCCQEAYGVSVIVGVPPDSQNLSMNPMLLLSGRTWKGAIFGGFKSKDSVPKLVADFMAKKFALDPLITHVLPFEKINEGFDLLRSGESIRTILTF

| SMILES | Liver level, fold lower than all-trans-RA [1, 2] | Level of liver retinoids 3 hr following gavage with ROL palmitate [1, 3] | Level of liver retinoids 3 hr following gavage with ROL palmitate [1, 4] | Oxidation to polar metabolites by CYP26B1 (CYP26B1) | Liver level, fold lower than all-trans-ROL [1, 2] | Oxidation to the aldehyde by ADH (Equine liver ADH) | Oxidation to the aldehyde by RDH12 (RDH12) | concentration at 3 h [1, 3] [µM] | concentration at 3 h [1, 4] [µM] |
| --- | --- | --- | --- | --- | --- | --- | --- | --- | --- |
| CC1=C(/C=C/C(C)=C/C=C/C(C)CC(=O)O)C(C)(C)CCC1 (stereo not drawn) [all-trans-DRA, all-trans-13,14-dihydroretinoic acid] | 30-50 fold | 10 ± 2 pmol/g tissue | 190 ± 17 pmol/g tissue | efficiently carried out the oxidation | – | – | – | – | – |
| CC1=C(/C=C/C(C)=C/C=C/C(C)CCO)C(C)(C)CCC1 (stereo not drawn) [all-trans-DROL, all-trans-13,14-dihydroretinol] | – | 21 ± 4 pmol/g tissue | 100 ± 18 pmol/g tissue | – | 280-330 fold | efficiently carried out the conversion | much less so | – | – |
| CC1=C(/C=C/C(C)=C/C=C/C(C)=C/C(=O)O)C(C)(C)CCC1 [all-trans-RA, all-trans-retinoic acid, reference compound] | – | – | – | efficiently carried out the oxidation | – | – | – | 0.32 ± 0.24 | 9.4 |
| CC1=C(/C=C/C(C)=C/C=C/C(C)=C/CO)C(C)(C)CCC1 [all-trans-ROL, all-trans-retinol] | – | 7,000 ± 1,200 pmol/g tissue | 28,000 ± 300 pmol/g tissue | – | – | efficiently carried out the conversion | active | – | – |
